Data: patent publication US11641858B2, “Agricultural chemicals” (Redag Crop Protection Ltd, priority 2016, dated 2023)

Assays:
Phytophthora cinnamomi = test: Amended agar assay (potato dextrose agar), reduction in colony growth; format: cell-based; conditions: for EC50: descending test concentrations, 5-fold dilutions typically down to 0.032 ppm, read-out: Phytophthora cinnamomi (EC50)
Method: (§1) Testing was carried out on potato dextrose agar (PDA) amended with each compound at test concentrations of 20, 4 and 0.8, 0.16 and 0.032 ppm. Amended agar at each test concentration was poured into three replicate 9 cm petri dishes. Each replicate dish was inoculated in the centre with a 5 mm agar plug taken from the leading edge of a culture aged between 2 and 7 days old; the age of the culture was dependant on the growth rate of the pathogen being tested. The test pathogens were Pythium ultimum and Phytophthora cinnamomi. Plates were incubated at 18° C. and the diameter of each colony measured before growth on the fastest growing plate reached the plate edge. This varied between 2 and 7 days depending on the growth rate of test pathogens. The % reduction in colony growth compared to the control was calculated for each test concentration and pathogen combination.
(§2) The results are shown in Table 1 in which * represents an average control of up to 50% at said dosage; ** represents an average control of 50% or greater but less than 80% at said dosage; and *** represents an average control of 80% or greater at said dosage.
(§3) A primary screen was also conducted for a number of other compounds of the invention. The screen was conducted at 20 ppm and the results are provided in Table 2, in which D represents no control detected at this concentration; C represents up to 50% control; B from 50 to 99% control; and A represents a control of greater than 99%.
(§4) Alternatively, or in addition, the same assay was conducted at descending test concentrations with 5-fold dilutions typically down to 0.032 ppm, and an EC50 (the concentration at which 50% control would be achieved) was determined. The results are provided in Table 1 in which G represents an EC50 above 20 ppm, F represents an EC50 of 2-20 ppm and E represents and EC50 less than 2 ppm.

Pythium ultimum = test: as above; format: cell-based; conditions: Globisporangium ultimum; for EC50: descending test concentrations, 5-fold dilutions typically down to 0.032 ppm, read-out: Pythium ultimum (EC50); for inhibition of growth at 20 ppm: Pythium ultimum, primary screen at 20 ppm, read-out: % control at 20 ppm
Method: as §1, §2, §3, §4

Compound	EC50 (Phytophthora cinnamomi) [µg/mL]	EC50 (Pythium ultimum) [µg/mL]	inhibition of growth at 20 ppm (Phytophthora cinnamomi; primary screen at 20 ppm, read-out: % control at 20 ppm) [%]	inhibition of growth at 20 ppm (Pythium ultimum) [%]
Cn1nnnc1-n1c(OCc2cccc(NC(=O)CCC(C)(C)C)n2)nc2ccccc21 [Example 45]	< 2	< 2	–	–
Cn1nnnc1-n1c(OCc2cccc(NC(=O)CC3CCCCC3)n2)nc2ccccc21 [Example 46]	< 2	< 2	–	–
Cn1nnnc1-n1c(OCc2cccc(NC(=O)CCC3CCCCC3)n2)nc2ccccc21 [Example 47]	< 2	< 2	–	–
C#CCC(=O)Nc1cccc(COc2nc3ccccc3n2-c2nnnn2C)n1 [Example 48]	> 20	> 20	–	–
CC(C)CCC(=O)Nc1cccc(COc2nc3ccccc3n2-c2nnnn2C)n1 [Example 49]	< 2	< 2	–	–
C=CCC(=O)Nc1cccc(COc2nc3ccccc3n2-c2nnnn2C)n1 [Example 50]	< 2	< 2	–	–
CCC(C)C(=O)Nc1cccc(COc2nc3ccccc3n2-c2nnnn2C)n1 (centres unmarked) [Example 51]	< 2	< 2	–	–
Cn1nnnc1-n1c(OCc2cccc(NC(=O)C[S+](C)[O-])n2)nc2ccccc21 (centres unmarked) [Example 52, N-(6-(((1-(1-Methyl-1H-tetrazol-5-yl)-1H-benzo[d]imidazol-2-yl)oxy)methyl)pyridin-2-yl)-2-(methylsulfinyl)acetamide]	2 to 20	> 20	–	–
Cn1nnnc1-n1c(OCc2cccc(NC(=O)CS(C)(=O)=O)n2)nc2ccccc21 [Example 53, N-(6-(((1-(1-methyl-1H-tetrazol-5-yl)-1H-benzo[d]imidazol-2-yl)oxy)methyl)pyridin-2-yl)-2-(methylsulfonyl)acetamide]	< 2	2 to 20	–	–
Cn1ccnc1-n1c(OCc2cccc(NC(=O)C(F)(F)Oc3ccccc3)n2)nc2ccccc21 [Example 54]	< 2	< 2	–	–
Cn1nnnc1-n1c(OCc2cccc(NC(=O)C(F)(F)Oc3ccccc3)n2)nc2c(F)cc(F)cc21 [Example 55]	< 2	< 2	–	–
Cc1nccnc1-n1c(OCc2cccc(NC(=O)C(F)(F)Oc3ccccc3)n2)nc2ccccc21 [Example 56]	2 to 20	< 2	–	–
Cn1ccnc1-n1c(OCc2cccc(NC(=O)OC(C)(C)C)n2)nc2ccccc21 [Example 57]	< 2	< 2	–	–
Cn1nnnc1-n1c(OCc2cccc(NC(=O)OC(C)(C)C)n2)nc2c(F)cc(F)cc21 [Example 58]	< 2	< 2	–	–
Cc1nccnc1-n1c(OCc2cccc(NC(=O)OC(C)(C)C)n2)nc2ccccc21 [Example 59]	> 20	> 20	–	–
Cn1nnnc1-n1c(OCc2cccc(NC(=O)C(F)(F)Oc3ccccc3)n2)nc2ccc(C#N)cc21 [Example 60]	< 2	< 2	–	–
Cn1nnnc1-n1c(OCc2cccc(NC(=O)C(F)(F)Oc3ccccc3)n2)nc2cc(C#N)ccc21 [Example 61]	< 2	< 2	–	–
O=C(Nc1cccc(COc2nc3ccccc3n2-c2ncccc2Br)n1)C(F)(F)Oc1ccccc1 [Example 62]	–	–	< 50	< 50
O=C(Nc1cccc(COc2nc3ccccc3n2-c2ncccc2Cl)n1)C(F)(F)Oc1ccccc1 [Example 63]	2 to 20	2 to 20	–	–
O=C(Nc1cccc(COc2nc3ccccc3n2-c2ncncc2Cl)n1)C(F)(F)Oc1ccccc1 [Example 64]	< 2	–	–	> 99
Cc1cccnc1-n1c(OCc2cccc(NC(=O)C(F)(F)Oc3ccccc3)n2)nc2ncccc21 [Example 66]	> 20	–	–	50 to 99
O=C(Nc1cccc(COc2[nH]c3ccccc3c2-c2ncncc2Cl)n1)C(F)(F)Oc1ccccc1 [Example 69, N-(6-(((3-(5-Chloropyrimidin-4-yl)-1H-indol-2-yl)oxy)methyl)pyridin-2-yl)-2,2-difluoro-2-phenoxyacetamide]	> 20	> 20	–	–
